According to US8937091B2 (Japan Science and Technology Agency, priority 2009, dated 2015):

Key:
[1] = tested on: SOCE (store operated calcium entry) in CHO cells; assay: Assay of SOCE (store operated calcium entry)-inhibiting action; type: cell-based, Chinese hamster; conditions: Cricetulus griseus, CHO, CHO cells, thapsigargin, read-out: SOCE level (percentage of inhibition); for inhibition at 10 µM: test compound 10 μmol; for inhibition at 30 µM: test compound 30 μmol; for inhibition at 100 µM: test compound 100 μmol
In short: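 CHO cells in calcium-free BSS received compound, then 1 μM thapsigargin 2 min later to deplete stores; after 9 min, 2 mM calcium chloride (final) added. Percent inhibition of the rise in intracellular calcium determined at various compound concentrations.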

[2] = tested on: IICR (IP3 induced calcium release) in CHO cells; assay: Assay of IICR (IP3 induced calcium release)-inhibiting action; type: cell-based, Chinese hamster; conditions: Cricetulus griseus, CHO, CHO cells, 10 μM ATP, read-out: IICR level (percentage of inhibition); for inhibition at 10 µM: test compound 10 μmol; for inhibition at 30 µM: test compound 30 μmol; for inhibition at 100 µM: test compound 100 μmol
In short: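 CHO cell medium replaced with calcium-containing BSS; compound added 1 min later, then 10 μM ATP after a further 2 min. Percent inhibition of the ATP-evoked rise in intracellular calcium determined at each compound concentration.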

SMILES: CC(CNC12CC3CC(CC(C3)C1)C2)C(=O)c1ccc(F)cc1 (stereo not drawn) [Example 191]
- inhibition at 10 µM [1]: 0%
- inhibition at 30 µM [1]: 0%
- inhibition at 100 µM [1]: 0%
- inhibition at 10 µM [2]: 0%
- inhibition at 30 µM [2]: 0%
- inhibition at 100 µM [2]: 0%

SMILES: O=C(CCCCl)c1ccncc1 [Example 192, 3-chloropropyl-4-pyridylketone]
- inhibition at 10 µM [1]: 0%
- inhibition at 30 µM [1]: 10%
- inhibition at 100 µM [1]: 20%
- inhibition at 10 µM [2]: 0%
- inhibition at 30 µM [2]: 0%
- inhibition at 100 µM [2]: 0%

SMILES: CC(C)(C)N(CCC(=O)c1cccs1)Cc1ccccc1 [Example 193, 2-(N-t-butylbenzyl)aminoethyl-2-thiophenylketone]
- inhibition at 10 µM [1]: 0%
- inhibition at 30 µM [1]: 0%
- inhibition at 100 µM [1]: 0%
- inhibition at 10 µM [2]: 70%
- inhibition at 30 µM [2]: 95%
- inhibition at 100 µM [2]: 100%

SMILES: CC(C)N(CCO)CCC(=O)c1cccs1 [Example 194, 2-(N-isopropylhydroxyethyl)aminoethyl-2-thiophenylketone]
- inhibition at 10 µM [1]: 0%
- inhibition at 30 µM [1]: 0%
- inhibition at 100 µM [1]: 10%
- inhibition at 10 µM [2]: 0%
- inhibition at 30 µM [2]: 0%
- inhibition at 100 µM [2]: 0%

SMILES: CC(C)N(CC(=O)c1ccc(F)cc1)Cc1ccccc1 [Example 196, 1-(N-benzylisopropyl)aminomethyl-4-fluorophenylketone]
- inhibition at 10 µM [1]: 0%
- inhibition at 30 µM [1]: 20%
- inhibition at 100 µM [1]: 40%
- inhibition at 10 µM [2]: 0%
- inhibition at 30 µM [2]: 10%
- inhibition at 100 µM [2]: 30%

SMILES: CC(=O)CCN(CCO)C(C)C [Example 197, 2-(N-hydroxyethylisopropyl)aminoethylmethylketone]
- inhibition at 10 µM [1]: 0%
- inhibition at 30 µM [1]: 0%
- inhibition at 100 µM [1]: 0%
- inhibition at 10 µM [2]: 0%
- inhibition at 30 µM [2]: 0%
- inhibition at 100 µM [2]: 0%

SMILES: CC(=O)CCN(Cc1ccccc1)C(C)C [Example 198, 2-(N-benzylisopropyl)aminoethylmethylketone]
- inhibition at 10 µM [1]: 0%
- inhibition at 30 µM [1]: 0%
- inhibition at 100 µM [1]: 0%
- inhibition at 10 µM [2]: 0%
- inhibition at 30 µM [2]: 0%
- inhibition at 100 µM [2]: 0%

SMILES: CC(C)N(CCO)CCC(=O)n1ccnc1 [Example 199, 2-(N-isopropylhydroxyethyl)aminoethyl-1-imidazolylketone]
- inhibition at 10 µM [1]: 0%
- inhibition at 30 µM [1]: 0%
- inhibition at 100 µM [1]: 0%
- inhibition at 10 µM [2]: 10%
- inhibition at 30 µM [2]: 20%
- inhibition at 100 µM [2]: 0%

SMILES: CC(C)N(CCC(=O)N1CCCCCC1=O)Cc1ccccc1 [Example 200, 3-(N-benzylisopropyl)aminopropionylcaprolactam]
- inhibition at 10 µM [1]: 0%
- inhibition at 30 µM [1]: 0%
- inhibition at 100 µM [1]: 10%
- inhibition at 10 µM [2]: 0%
- inhibition at 30 µM [2]: 0%
- inhibition at 100 µM [2]: 20%

SMILES: CC(C)N(CCO)CCC(=O)N1CCCCCC1=O [Example 201, 3-(N-hydroxyethylisopropyl)aminopropionylcaprolactam]
- inhibition at 10 µM [1]: 0%
- inhibition at 30 µM [1]: 0%
- inhibition at 100 µM [1]: 0%
- inhibition at 10 µM [2]: 0%
- inhibition at 30 µM [2]: 0%
- inhibition at 100 µM [2]: 0%

SMILES: CC(C)N(CCC(=O)c1cc(Cl)sc1Cl)Cc1ccccc1 [Example 202, 2-(N-isopropylbenzyl)aminomethyl-3-(2,5-dichlorothiophenyl)ketone]
- inhibition at 10 µM [1]: 0%
- inhibition at 30 µM [1]: 20%
- inhibition at 100 µM [1]: 50%
- inhibition at 10 µM [2]: 50%
- inhibition at 30 µM [2]: 80%
- inhibition at 100 µM [2]: 100%

SMILES: CC(C)N(CCO)CCC(=O)c1cc(Cl)sc1Cl [Example 203, 2-(N-isopropyl-2-hydroxyethyl)aminomethyl-3-(2,5-dichlorothiophenyl)ketone]
- inhibition at 10 µM [1]: 50%
- inhibition at 30 µM [1]: 20%
- inhibition at 100 µM [1]: 10%
- inhibition at 10 µM [2]: 40%
- inhibition at 30 µM [2]: 90%
- inhibition at 100 µM [2]: 100%

SMILES: O=C(CCN(CCO)Cc1ccccc1)c1cc(Cl)sc1Cl [Example 204, 2-(N-2-hydroxyethylbenzyl)aminomethyl-3-(2,5-dichlorothiophenyl)ketone]
- inhibition at 10 µM [1]: 0%
- inhibition at 30 µM [1]: 0%
- inhibition at 100 µM [1]: 50%
- inhibition at 10 µM [2]: 0%
- inhibition at 30 µM [2]: 40%
- inhibition at 100 µM [2]: 70%
